{"source": "paper PMC6325233", "about": "“A Novel Actin Binding Drug with In Vivo Efficacy” (Antimicrobial Agents and Chemotherapy, 2018)", "key": {"[1]": {"test_system": "yeast", "conditions": "cited from earlier work", "excerpt": "Occidiofungin is a nonribosomally synthesized glycolipopeptide produced by the soil bacterium Burkholderia contaminans MS14 ([21]). It is a cyclic peptide with a base mass of 1,200 Da (Fig. 1) ([21]). Occidiofungin has a wide spectrum of activities against filamentous and nonfilamentous fungi and minimal toxicity in an animal system ([21], [22])."}, "[2]": {"conditions": "cited from earlier work", "procedure": "Occidiofungin is a nonribosomally synthesized glycolipopeptide produced by the soil bacterium Burkholderia contaminans MS14 ([21]). It is a cyclic peptide with a base mass of 1,200 Da (Fig. 1) ([21]). Occidiofungin has a wide spectrum of activities against filamentous and nonfilamentous fungi and minimal toxicity in an animal system ([21], [22]). […] Occidiofungin, on the other hand, is well tolerated at 5 mg/kg or 20 mg/kg when administered intravenously or subcutaneously, respectively ([22], [25]). This dose is much higher than the MIC of occidiofungin against several fungal pathogens. ..."}, "[3]": {"test_system": "Candida glabrata 25742", "experiment": "MIC susceptibility testing", "format": "cell-based", "design": "key to MIC, 50% inhibition: -: indicates absence of isolates with 50% inhibition endpoint", "conditions": "CLSI M27-A3", "procedure": "(§1) Occidiofungin was purified from a liquid culture of Burkholderia contaminans MS14 as previously described ([21]). MIC susceptibility testing was performed according to the CLSI M27-A3 and M38-A2 standards for the susceptibility testing of yeasts and filamentous fungi, respectively. S. cerevisiae deletion mutants were obtained from the commercially available BY4741 deletion library (Thermo Scientific)."}, "[4]": {"test_system": "Fusarium oxysporum 27718", "experiment": "MIC susceptibility testing", "format": "cell-based", "design": "key to MIC, 50% inhibition: -: indicates absence of isolates with 50% inhibition endpoint", "conditions": "CLSI M38-A2", "procedure": "as §1"}, "[5]": {"test_system": "Aspergillus flavus 28455", "experiment": "MIC susceptibility testing", "format": "cell-based", "design": "key to MIC, 50% inhibition: -: indicates absence of isolates with 50% inhibition endpoint", "conditions": "CLSI M38-A2", "procedure": "as §1"}, "[6]": {"test_system": "Cryptococcus neoformans 27708", "experiment": "MIC susceptibility testing", "format": "cell-based", "design": "key to MIC, 50% inhibition: -: indicates absence of isolates with 50% inhibition endpoint", "conditions": "CLSI M27-A3; 72 hours", "procedure": "as §1"}, "[7]": {"test_system": "Aspergillus flavus 28517", "experiment": "MIC susceptibility testing", "format": "cell-based", "design": "key to MIC, 50% inhibition: -: indicates absence of isolates with 50% inhibition endpoint", "conditions": "CLSI M38-A2", "procedure": "as §1"}, "[8]": {"test_system": "Aspergillus fumigatus 28435", "experiment": "MIC susceptibility testing", "format": "cell-based", "design": "key to MIC, 50% inhibition: -: indicates absence of isolates with 50% inhibition endpoint", "conditions": "CLSI M38-A2", "procedure": "as §1"}, "[9]": {"test_system": "Candida tropicalis 9624", "experiment": "MIC susceptibility testing", "format": "cell-based", "design": "key to MIC, 50% inhibition: -: indicates absence of isolates with 50% inhibition endpoint", "conditions": "CLSI M27-A3", "procedure": "as §1"}, "[10]": {"test_system": "Rhizopus oryzae 28403", "experiment": "MIC susceptibility testing", "format": "cell-based", "design": "key to MIC, 50% inhibition: -: indicates absence of isolates with 50% inhibition endpoint", "conditions": "CLSI M38-A2", "procedure": "as §1"}, "[11]": {"test_system": "Fusarium solani 28386", "experiment": "MIC susceptibility testing", "format": "cell-based", "design": "key to MIC, 50% inhibition: -: indicates absence of isolates with 50% inhibition endpoint", "conditions": "CLSI M38-A2", "procedure": "as §1"}, "[12]": {"test_system": "Aspergillus flavus 28445", "experiment": "MIC susceptibility testing", "format": "cell-based", "design": "key to MIC, 50% inhibition: -: indicates absence of isolates with 50% inhibition endpoint", "conditions": "CLSI M38-A2", "procedure": "as §1"}, "[13]": {"test_system": "Candida parapsilosis 28174", "experiment": "MIC susceptibility testing", "format": "cell-based", "design": "key to MIC, 50% inhibition: -: indicates absence of isolates with 50% inhibition endpoint", "conditions": "CLSI M27-A3", "procedure": "as §1"}, "[14]": {"test_system": "Mucor fragilis 27782", "experiment": "MIC susceptibility testing", "format": "cell-based", "design": "key to MIC, 50% inhibition: -: indicates absence of isolates with 50% inhibition endpoint", "conditions": "CLSI M38-A2", "procedure": "as §1"}, "[15]": {"test_system": "Cryptococcus neoformans 28446", "experiment": "MIC susceptibility testing", "format": "cell-based", "design": "key to MIC, 50% inhibition: -: indicates absence of isolates with 50% inhibition endpoint", "conditions": "CLSI M27-A3; 72 hours", "procedure": "as §1"}, "[16]": {"test_system": "Rhizopus microsporus 27785", "experiment": "MIC susceptibility testing", "format": "cell-based", "design": "key to MIC, 50% inhibition: -: indicates absence of isolates with 50% inhibition endpoint", "conditions": "CLSI M38-A2", "procedure": "as §1"}, "[17]": {"test_system": "Rhizopus microsporus 28506", "experiment": "MIC susceptibility testing", "format": "cell-based", "design": "key to MIC, 50% inhibition: -: indicates absence of isolates with 50% inhibition endpoint", "conditions": "CLSI M38-A2", "procedure": "as §1"}}}
{"substance": "occidiofungin", "values": [{"measurement": "impact on growth rate of yeast", "setting": "[1]; subinhibitory concentrations", "value": "little to no impact on the growth rate of yeast"}, {"measurement": "induction of apoptosis", "setting": "[1]; yeast cells at the MIC", "value": "rapidly induces apoptosis in yeast cells"}, {"measurement": "blood cells and blood chemistry", "setting": "[2]", "value": "no serious signs of toxicity"}, {"measurement": "toxicity at 5 mg/kg intravenous", "setting": "[2]; intravenous, 5 mg/kg, mice", "value": "minimal induced toxicity"}, {"measurement": "well tolerated dose, intravenous", "setting": "[2]; intravenous", "value": 5, "unit": "mg/kg"}, {"measurement": "blood chemistry and histopathology", "setting": "[2]; mice, 5 mg/kg intravenous", "value": "a transient nonspecific stress response with no damage to organ tissues"}, {"measurement": "well tolerated dose, subcutaneous", "setting": "[2]; subcutaneous", "value": 20, "unit": "mg/kg"}, {"measurement": "MIC, 50% inhibition", "setting": "[3]; 24 hours", "value": "-"}, {"measurement": "MIC, 100% inhibition", "setting": "[3]; 24 hours", "value": 2, "unit": "µg/mL"}, {"measurement": "MIC, 50% inhibition", "setting": "[3]; 48 hours", "value": "-"}, {"measurement": "MIC, 100% inhibition", "setting": "[3]; 48 hours", "value": 2, "unit": "µg/mL"}, {"measurement": "MIC, 50% inhibition", "setting": "[4]; 24 hours", "value": 2, "unit": "µg/mL"}, {"measurement": "MIC, 100% inhibition", "setting": "[4]; 24 hours", "value": 4, "unit": "µg/mL"}, {"measurement": "MIC, 50% inhibition", "setting": "[4]; 48 hours", "value": "-"}, {"measurement": "MIC, 100% inhibition", "setting": "[4]; 48 hours", "value": 4, "unit": "µg/mL"}, {"measurement": "MIC, 50% inhibition", "setting": "[5]; 24 hours", "value": 2, "unit": "µg/mL"}, {"measurement": "MIC, 100% inhibition", "setting": "[5]; 24 hours", "value": 4, "unit": "µg/mL"}, {"measurement": "MIC, 50% inhibition", "setting": "[5]; 48 hours", "value": "-"}, {"measurement": "MIC, 100% inhibition", "setting": "[5]; 48 hours", "value": 4, "unit": "µg/mL"}, {"measurement": "MIC, 50% inhibition", "setting": "[6]", "value": "-"}, {"measurement": "MIC, 100% inhibition", "setting": "[6]", "value": 2, "unit": "µg/mL"}, {"measurement": "MIC, 50% inhibition", "setting": "[7]; 24 hours", "value": "-"}, {"measurement": "MIC, 100% inhibition", "setting": "[7]; 24 hours", "value": 4, "unit": "µg/mL"}, {"measurement": "MIC, 50% inhibition", "setting": "[7]; 48 hours", "value": "-"}, {"measurement": "MIC, 100% inhibition", "setting": "[7]; 48 hours", "value": 4, "unit": "µg/mL"}, {"measurement": "MIC, 50% inhibition", "setting": "[8]; 24 hours", "value": "-"}, {"measurement": "MIC, 100% inhibition", "setting": "[8]; 24 hours", "value": 2, "unit": "µg/mL"}, {"measurement": "MIC, 50% inhibition", "setting": "[8]; 48 hours", "value": "-"}, {"measurement": "MIC, 100% inhibition", "setting": "[8]; 48 hours", "value": 2, "unit": "µg/mL"}, {"measurement": "MIC, 50% inhibition", "setting": "[9]; 24 hours", "value": "-"}, {"measurement": "MIC, 100% inhibition", "setting": "[9]; 24 hours", "value": 2, "unit": "µg/mL"}, {"measurement": "MIC, 50% inhibition", "setting": "[9]; 48 hours", "value": "-"}, {"measurement": "MIC, 100% inhibition", "setting": "[9]; 48 hours", "value": 2, "unit": "µg/mL"}, {"measurement": "MIC, 50% inhibition", "setting": "[10]; 24 hours", "value": 4, "unit": "µg/mL"}, {"measurement": "MIC, 100% inhibition", "setting": "[10]; 24 hours", "value": 8, "unit": "µg/mL"}, {"measurement": "MIC, 50% inhibition", "setting": "[10]; 48 hours", "value": "-"}, {"measurement": "MIC, 100% inhibition", "setting": "[10]; 48 hours", "value": 8, "unit": "µg/mL"}, {"measurement": "MIC, 50% inhibition", "setting": "[11]; 24 hours", "value": 2, "unit": "µg/mL"}, {"measurement": "MIC, 100% inhibition", "setting": "[11]; 24 hours", "value": 4, "unit": "µg/mL"}, {"measurement": "MIC, 50% inhibition", "setting": "[11]; 48 hours", "value": "-"}, {"measurement": "MIC, 100% inhibition", "setting": "[11]; 48 hours", "value": 4, "unit": "µg/mL"}, {"measurement": "MIC, 50% inhibition", "setting": "[12]; 24 hours", "value": 2, "unit": "µg/mL"}, {"measurement": "MIC, 100% inhibition", "setting": "[12]; 24 hours", "value": 4, "unit": "µg/mL"}, {"measurement": "MIC, 50% inhibition", "setting": "[12]; 48 hours", "value": "-"}, {"measurement": "MIC, 100% inhibition", "setting": "[12]; 48 hours", "value": 4, "unit": "µg/mL"}, {"measurement": "MIC, 50% inhibition", "setting": "[13]; 24 hours", "value": "-"}, {"measurement": "MIC, 100% inhibition", "setting": "[13]; 24 hours", "value": 4, "unit": "µg/mL"}, {"measurement": "MIC, 50% inhibition", "setting": "[13]; 48 hours", "value": "-"}, {"measurement": "MIC, 100% inhibition", "setting": "[13]; 48 hours", "value": 4, "unit": "µg/mL"}, {"measurement": "MIC, 50% inhibition", "setting": "[14]; 24 hours", "value": 2, "unit": "µg/mL"}, {"measurement": "MIC, 100% inhibition", "setting": "[14]; 24 hours", "value": 4, "unit": "µg/mL"}, {"measurement": "MIC, 50% inhibition", "setting": "[14]; 48 hours", "value": "-"}, {"measurement": "MIC, 100% inhibition", "setting": "[14]; 48 hours", "value": 4, "unit": "µg/mL"}, {"measurement": "MIC, 50% inhibition", "setting": "[15]", "value": "-"}, {"measurement": "MIC, 100% inhibition", "setting": "[15]", "value": 1, "unit": "µg/mL"}, {"measurement": "MIC, 50% inhibition", "setting": "[16]; 24 hours", "value": 2, "unit": "µg/mL"}, {"measurement": "MIC, 100% inhibition", "setting": "[16]; 24 hours", "value": 4, "unit": "µg/mL"}, {"measurement": "MIC, 50% inhibition", "setting": "[16]; 48 hours", "value": "-"}, {"measurement": "MIC, 100% inhibition", "setting": "[16]; 48 hours", "value": 8, "unit": "µg/mL"}, {"measurement": "MIC, 50% inhibition", "setting": "[17]; 24 hours", "value": 4, "unit": "µg/mL"}, {"measurement": "MIC, 100% inhibition", "setting": "[17]; 24 hours", "value": 8, "unit": "µg/mL"}, {"measurement": "MIC, 50% inhibition", "setting": "[17]; 48 hours", "value": "-"}, {"measurement": "MIC, 100% inhibition", "setting": "[17]; 48 hours", "value": 8, "unit": "µg/mL"}]}
